SMILES strings stand for the structures.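 Following 48 hours of exposure in 96-well plates, responses at five concentrations were used to interpolate endpoints linearly. Here, GI50 denotes the concentration required for 50% inhibition of growth.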 Active and inactive are the calls of the source. No stated cut-off is given here; in the data, active = GI50 up to about 1.1 µM and inactive = higher. A value given as a limit tells only on which side of the number the result lay.

Test systems include U-251; SNB-75; SN12C; 786-0; EKVX; OVCAR-8; K562; OVCAR-3; SW-620; OVCAR-4; UACC-62; HCC 2998; Malme-3M; LOX IMVI; SF-539; COLO 205; NCI-H23; HOP-62; RPMI-8226.
Holding throughout (test): growth of human tumour cells (NCI), 48 h

As for `Cc1nc(O)nc2nc3cc(Cl)cc(Cl)c3c(NC(C)(CO)CO)c12`, the GI50 is 14.4 µM (inactive) with U-251; 11.4 µM (inactive) in the assay with SNB-75; > 100 µM (inactive) in the assay with SN12C; 15.6 µM (inactive) with 786-0; > 100 µM (inactive) in the assay on EKVX; 75.2 µM (inactive) in the assay with OVCAR-8. The GI50 in the assay with K562 was > 100 µM (inactive); with OVCAR-3, > 100 µM (inactive); in the assay with SW-620, > 100 µM (inactive); in the assay on OVCAR-4, > 100 µM (inactive); in the assay with UACC-62, 72.3 µM (inactive); in the assay on HCC 2998 it was > 100 µM (inactive). The GI50 is > 100 µM (inactive) in the assay on Malme-3M; > 100 µM (inactive) in the assay with LOX IMVI; > 100 µM (inactive) in the assay with SF-539; > 100 µM (inactive) in the assay on COLO 205; 81.8 µM (inactive) in the assay with NCI-H23; 23.5 µM (inactive) in the assay with HOP-62.
In the case of `CSCCC(C(=O)O)N(CC1(O)OCC(O)C(O)C1O)N=O` (centres undefined), the GI50 in the assay on U-251, with SNB-75, in the assay on 786-0, with EKVX, with OVCAR-8 and in the assay on K562 was > 100 µM (inactive) each time. Moreover, the GI50 in the assay with OVCAR-3, with SW-620, in the assay with UACC-62, in the assay with HCC 2998, with Malme-3M and in the assay with RPMI-8226 was > 100 µM (inactive) each time. Moreover, the GI50 in the assay on LOX IMVI, in the assay with SF-539, with COLO 205, in the assay on NCI-H23 and in the assay with HOP-62 was > 100 µM (inactive) throughout.
On to `CS(=O)(=O)OCCN1CCN(C(=O)c2cccc3c(Nc4ccc(S(=O)(=O)N=C(N)N)cc4)c4ccccc4nc23)CC1`, for which the GI50 with U-251, with SNB-75, in the assay on SN12C, in the assay with 786-0, with OVCAR-8 and in the assay with K562 was > 100 µM (inactive) throughout. Further, the GI50 in the assay on OVCAR-3, in the assay with OVCAR-4, with UACC-62, in the assay with HCC 2998, in the assay with Malme-3M and in the assay with RPMI-8226 was > 100 µM (inactive) throughout. Besides, the GI50 with SF-539, in the assay on COLO 205, in the assay with NCI-H23 and with HOP-62 was > 100 µM (inactive) throughout.
Take `CCOC(=O)C(Oc1ccc(OC)c2c1C(=O)CCC2)c1ccccc1` (centres undefined): the GI50 with U-251 is > 100 µM (inactive); in the assay with SN12C, > 100 µM (inactive); with 786-0, > 100 µM (inactive); in the assay with EKVX, 50.2 µM (inactive); in the assay with OVCAR-8, > 100 µM (inactive); in the assay on K562, 49.2 µM (inactive). For the same compound, the GI50 with OVCAR-3 is > 100 µM (inactive); with SW-620, > 100 µM (inactive); with OVCAR-4 it was 48.9 µM (inactive); in the assay with UACC-62 it was 69.3 µM (inactive); in the assay on HCC 2998 it was > 100 µM (inactive); in the assay with Malme-3M, > 100 µM (inactive). The GI50 in the assay on RPMI-8226 was 45.9 µM (inactive); with LOX IMVI, > 100 µM (inactive); with SF-539 it was > 100 µM (inactive); in the assay on COLO 205, > 100 µM (inactive); with NCI-H23, 25.5 µM (inactive); with HOP-62 it was > 100 µM (inactive).
As to `CN1C(c2ccccc2)CS(=O)(=O)CS1(=O)=O` (centres undefined), the GI50 in the assay with U-251, in the assay on SNB-75, with SN12C, with 786-0, with EKVX and with OVCAR-8 was > 100 µM (inactive) each time. Besides, the GI50 was 30.1 µM (inactive) in the assay on OVCAR-3; > 100 µM (inactive) in the assay with SW-620; > 100 µM (inactive) in the assay with OVCAR-4; > 100 µM (inactive) in the assay with UACC-62; > 100 µM (inactive) with HCC 2998; > 100 µM (inactive) in the assay with Malme-3M. The GI50 in the assay on LOX IMVI, with SF-539, with COLO 205, in the assay on NCI-H23 and in the assay with HOP-62 was > 100 µM (inactive) each time.
As for `CCN(CC)CCCNc1nccc2c(C)c3c(cc12)c1cnccc1n3C`, the GI50 in the assay with U-251 was 0.367 µM (active); in the assay on SNB-75, 0.427 µM (active); with SN12C, 0.238 µM (active); in the assay with 786-0, 0.0927 µM (active); with EKVX, 0.294 µM (active); in the assay with OVCAR-8, 0.0692 µM (active). The GI50 in the assay on K562 is 0.0211 µM (active); with OVCAR-3, 0.237 µM (active); in the assay with SW-620 it was 0.0233 µM (active); in the assay with OVCAR-4 it was 0.0282 µM (active); in the assay on UACC-62, 0.891 µM (active); with HCC 2998, 0.0401 µM (active). The GI50 with LOX IMVI was 0.0711 µM (active); in the assay with SF-539, 0.0173 µM (active); in the assay on COLO 205 it was 0.249 µM (active); with NCI-H23 it was 0.179 µM (active); in the assay with HOP-62, 0.116 µM (active).
`c1ccc(C2CC(NC3CCCCC3)=Nc3ccccc3N2)cc1` (centres undefined): the GI50 with U-251 was 56.9 µM (inactive); with SNB-75, 16.4 µM (inactive); in the assay with SN12C, > 100 µM (inactive); in the assay with 786-0, > 100 µM (inactive); in the assay with EKVX it was 54.8 µM (inactive); in the assay with OVCAR-8 it was > 100 µM (inactive). The GI50 was 19.3 µM (inactive) with K562; > 100 µM (inactive) in the assay on OVCAR-3; > 100 µM (inactive) in the assay on SW-620; > 100 µM (inactive) with OVCAR-4; 31.2 µM (inactive) in the assay on UACC-62; 15.6 µM (inactive) with Malme-3M. The GI50 with RPMI-8226 was 34 µM (inactive); with LOX IMVI, 20.4 µM (inactive); in the assay on COLO 205, 24.2 µM (inactive); in the assay with NCI-H23, 54.1 µM (inactive); in the assay on HOP-62 it was > 100 µM (inactive).
Take `COC(=O)c1cc(C)ccc1C1CN=NC12Cc1c(C)cc(C)cc1C2=O` (centres undefined): the GI50 in the assay with U-251 is 27 µM (inactive); in the assay on SNB-75 it was 23.9 µM (inactive); with SN12C, 28.6 µM (inactive); in the assay on 786-0 it was 25.7 µM (inactive); in the assay with EKVX it was 33.5 µM (inactive); in the assay with OVCAR-8 it was 33.8 µM (inactive). In addition, the GI50 with K562 is 18.4 µM (inactive); in the assay with OVCAR-3, 14.9 µM (inactive); in the assay with SW-620, 33.2 µM (inactive); in the assay on OVCAR-4, 16.9 µM (inactive); in the assay on UACC-62 it was 16.9 µM (inactive); with HCC 2998, 26.5 µM (inactive). The GI50 was 11.8 µM (inactive) in the assay with Malme-3M; 15.1 µM (inactive) with LOX IMVI; 17.1 µM (inactive) in the assay with SF-539; 16.7 µM (inactive) in the assay with COLO 205; 19.1 µM (inactive) in the assay with NCI-H23; 29 µM (inactive) in the assay on HOP-62.
As to `COc1cc(OC)c(OC)cc1/C=C/c1nc2ccccc2s1`, the GI50 in the assay on U-251 is > 100 µM (inactive); in the assay with SNB-75, 91.4 µM (inactive); in the assay on SN12C it was > 100 µM (inactive); in the assay on 786-0, > 100 µM (inactive); in the assay with EKVX, 69.7 µM (inactive); in the assay on OVCAR-8, > 100 µM (inactive). Further, the GI50 in the assay with K562 was 5.42 µM (inactive); in the assay on OVCAR-3, > 100 µM (inactive); with SW-620, > 100 µM (inactive); in the assay on HCC 2998 it was > 100 µM (inactive); in the assay on Malme-3M, > 100 µM (inactive); in the assay on RPMI-8226, 31 µM (inactive). The GI50 in the assay on LOX IMVI is > 100 µM (inactive); in the assay on SF-539 it was > 100 µM (inactive); with COLO 205 it was > 100 µM (inactive); with NCI-H23, 86.5 µM (inactive); in the assay with HOP-62, 29.1 µM (inactive).
For the compound `C=CCC1=C2CCCCC2CCC1=O` (centres undefined), the GI50 with U-251, in the assay on SNB-75, with SN12C, in the assay on 786-0, in the assay on EKVX and in the assay with OVCAR-8 was > 100 µM (inactive) throughout. The GI50 with K562, in the assay on OVCAR-3, in the assay on SW-620, in the assay with OVCAR-4, in the assay with UACC-62 and in the assay with Malme-3M was > 100 µM (inactive) in each case. The GI50 with RPMI-8226, in the assay on LOX IMVI, in the assay on SF-539, with COLO 205, in the assay on NCI-H23 and in the assay with HOP-62 was > 100 µM (inactive) throughout.
As for `O=C(O)CN(c1ccccc1)S(=O)(=O)c1ccc([N+](=O)[O-])cc1`, the GI50 in the assay with U-251, with SN12C, with 786-0, with EKVX, in the assay on OVCAR-8 and with K562 was > 100 µM (inactive) each time. The GI50 in the assay on OVCAR-3, with SW-620, in the assay on OVCAR-4, in the assay on UACC-62, in the assay on Malme-3M and in the assay on RPMI-8226 was > 100 µM (inactive) in each case. Moreover, the GI50 in the assay on LOX IMVI, with SF-539, in the assay on COLO 205 and with NCI-H23 was > 100 µM (inactive) in each case.
Consider `OC(CCN1CCCCC1)(c1ccccc1)c1ccccc1` [PRIDINOL], for which the GI50 in the assay with U-251 is > 100 µM (inactive); in the assay on SN12C it was > 100 µM (inactive); in the assay on 786-0, > 100 µM (inactive); in the assay on EKVX, 79.6 µM (inactive); with OVCAR-8, > 100 µM (inactive); in the assay on K562, > 100 µM (inactive). Besides, the GI50 in the assay with OVCAR-3 is > 100 µM (inactive); in the assay with SW-620, > 100 µM (inactive); with UACC-62 it was > 100 µM (inactive); with Malme-3M it was > 100 µM (inactive); with RPMI-8226, 87.1 µM (inactive); in the assay with LOX IMVI it was > 100 µM (inactive). Moreover, the GI50 with COLO 205, in the assay on NCI-H23 and with HOP-62 was > 100 µM (inactive) in each case.

The values are drawn from ChEMBL document CHEMBL1201862, “PubChem BioAssay data set” (2004).
